Legend:
Type in all cases: in vivo
[1] = Sensory evaluation on Met-Asn peptide
Description: Sensory evaluation was conducted to validate the role of Met-Asn peptide itself, without sugar binding thereto, on the sweetening effect. […] When a Met-Asn peptide+5% sucrose solution was presented as a sample, the sweet taste intensity thereof was 5.00±0.23, which was not shown to have a significant difference from that of the 5% sucrose solution. […] Accordingly, the sweetness effect of the fraction containing the Met-Asn peptide may be due to the sugar structure binding.

[2] = Sensory evaluation, sweet taste enhancement of LHe with sodium cyclamate (15-point scale)
Description: In order to verify specificity of the sweet taste enhancement effect of LHe, a sweetener except sucrose was used as a sweet taste reference sample. […] In the experiment, panels well trained in the basic tastes participated, and the presented samples were maintained at room temperature. After having a taste of the reference sample, the mouth was rinsed with water, and then after having a taste of the sample, intensity of each basic taste was evaluated.
In order to verify specificity of the sweet taste enhancement effect of LHe, a sweetener, except sucrose, was used as a sweet taste reference sample.

[3] = Sensory evaluation, sweet taste enhancement of LHe with sucrose (15-point scale)
Description: In order to more accurately verify the sweet taste enhancement effect of LHe, 2, 5, 10, and 15% sucrose solutions were used as sweet taste reference samples. An LHe solution (300 μg/mL) and an LHe+5% sucrose solution were presented as samples, and sweet taste intensities thereof were measured by a 15-point scale method. Here, the sweet taste intensities of sweet taste reference samples, 2, 5, 10, and 16% sucrose solutions were presented to be 2, 5, 10, and 15 points, respectively, according to the method of Meilgaard et al.
In order to more accurately verify the sweet taste enhancement effect of LHe, 2, 5, 10, and 15% sucrose solutions were used as sweet taste reference samples. A 300 μg/mL LHe solution and a 300 μg/mL LHe+5% sucrose solution were presented as samples, and sweet taste intensities thereof were measured by a 15-point scale method. Here, the sweet taste reference samples, 2, 5, 10, and 16% sucrose solutions were respectively presented to be 2, 5, 10, and 15 points according to the method of Meilgaard et al. (1987).

Question: Which sweet taste intensity ([1]; Met-Asn peptide + 5% sucrose solution) does the source give for Met-Asn [Met-Asn peptide] here?
Answer: 5.00±0.23

Question: And the sweet taste intensity ([1]; Met-Asn peptide itself, without sugar binding)?
Answer: 0.13±0.04

Question: With `O=S(=O)(O)NC1CCCCC1` [cyclamate, sodium cyclamate] as the compound, how does the sweet taste intensity ([2]; 0.056% cyclamate reference sample) read?
Answer: 2.00±0.00

Question: And the sweet taste intensity ([2]; 0.14% cyclamate reference sample)?
Answer: 5.00±0.00

Question: What does the source list for `OC[C@H]1O[C@@](CO)(O[C@H]2O[C@H](CO)[C@@H](O)[C@H](O)[C@H]2O)[C@@H](O)[C@@H]1O` [sucrose]?
Answer: sweet taste intensity ([1]; 5% sucrose reference sample): 5.00±0.00; sweet taste intensity ([3]; 2% sucrose reference sample): 2.00±0.00; sweet taste intensity ([3]; 5% sucrose reference sample): 5.00±0.00
